Test results published in the OligoGym collection.
Oligonucleotides are given in HELM: sugar(base)linkage, 5' to 3'; d 2'-deoxyribose, r ribose, m 2'-O-methylribose, p phosphate. ss, as = sense and antisense strand

target: UBE2K; assay: reporter assay of Huesken 2005; details: siRNA
Further: test concentration or dose not given here.

Substance	normalised inhibition (eCFP-eYFP dual reporter)
RNA1{r(C)p.r(A)p.r(C)p.r(C)p.r(A)p.r(U)p.r(A)p.r(U)p.r(G)p.r(A)p.r(A)p.r(G)p.r(G)p.r(A)p.r(G)p.r(G)p.r(A)p.r(A)p.r(G)p.d(T)p.d(T)}|RNA2{r(C)p.r(U)p.r(U)p.r(C)p.r(C)p.r(U)p.r(C)p.r(C)p.r(U)p.r(U)p.r(C)p.r(A)p.r(U)p.r(A)p.r(U)p.r(G)p.r(G)p.r(U)p.r(G)p.d(T)p.d(G)}$$$RNA1{StrandType:ss}|RNA2{StrandType:as}$	69.5%
RNA1{r(C)p.r(C)p.r(A)p.r(G)p.r(A)p.r(A)p.r(A)p.r(C)p.r(A)p.r(U)p.r(A)p.r(C)p.r(C)p.r(C)p.r(A)p.r(U)p.r(U)p.r(U)p.r(A)p.d(T)p.d(T)}|RNA2{r(U)p.r(A)p.r(A)p.r(A)p.r(U)p.r(G)p.r(G)p.r(G)p.r(U)p.r(A)p.r(U)p.r(G)p.r(U)p.r(U)p.r(U)p.r(C)p.r(U)p.r(G)p.r(G)p.d(T)p.d(A)}$$$RNA1{StrandType:ss}|RNA2{StrandType:as}$	72.4%
RNA1{r(A)p.r(G)p.r(A)p.r(U)p.r(G)p.r(A)p.r(U)p.r(C)p.r(C)p.r(A)p.r(C)p.r(A)p.r(G)p.r(G)p.r(A)p.r(U)p.r(G)p.r(C)p.r(U)p.d(T)p.d(T)}|RNA2{r(A)p.r(G)p.r(C)p.r(A)p.r(U)p.r(C)p.r(C)p.r(U)p.r(G)p.r(U)p.r(G)p.r(G)p.r(A)p.r(U)p.r(C)p.r(A)p.r(U)p.r(C)p.r(U)p.d(G)p.d(G)}$$$RNA1{StrandType:ss}|RNA2{StrandType:as}$	68%
RNA1{r(C)p.r(A)p.r(G)p.r(U)p.r(A)p.r(C)p.r(A)p.r(A)p.r(A)p.r(C)p.r(A)p.r(A)p.r(A)p.r(A)p.r(U)p.r(C)p.r(C)p.r(C)p.r(G)p.d(T)p.d(T)}|RNA2{r(C)p.r(G)p.r(G)p.r(G)p.r(A)p.r(U)p.r(U)p.r(U)p.r(U)p.r(G)p.r(U)p.r(U)p.r(U)p.r(G)p.r(U)p.r(A)p.r(C)p.r(U)p.r(G)p.d(A)p.d(T)}$$$RNA1{StrandType:ss}|RNA2{StrandType:as}$	70.1%
RNA1{r(C)p.r(U)p.r(G)p.r(A)p.r(A)p.r(A)p.r(G)p.r(A)p.r(U)p.r(C)p.r(A)p.r(A)p.r(U)p.r(G)p.r(G)p.r(G)p.r(C)p.r(A)p.r(G)p.d(T)p.d(T)}|RNA2{r(C)p.r(U)p.r(G)p.r(C)p.r(C)p.r(C)p.r(A)p.r(U)p.r(U)p.r(G)p.r(A)p.r(U)p.r(C)p.r(U)p.r(U)p.r(U)p.r(C)p.r(A)p.r(G)p.d(G)p.d(A)}$$$RNA1{StrandType:ss}|RNA2{StrandType:as}$	79.2%
RNA1{r(G)p.r(G)p.r(C)p.r(A)p.r(G)p.r(C)p.r(U)p.r(G)p.r(C)p.r(A)p.r(A)p.r(U)p.r(G)p.r(A)p.r(C)p.r(U)p.r(C)p.r(U)p.r(C)p.d(T)p.d(T)}|RNA2{r(G)p.r(A)p.r(G)p.r(A)p.r(G)p.r(U)p.r(C)p.r(A)p.r(U)p.r(U)p.r(G)p.r(C)p.r(A)p.r(G)p.r(C)p.r(U)p.r(G)p.r(C)p.r(C)p.d(C)p.d(A)}$$$RNA1{StrandType:ss}|RNA2{StrandType:as}$	57.6%
RNA1{r(A)p.r(U)p.r(A)p.r(C)p.r(C)p.r(A)p.r(G)p.r(A)p.r(A)p.r(A)p.r(C)p.r(A)p.r(U)p.r(A)p.r(C)p.r(C)p.r(C)p.r(A)p.r(U)p.d(T)p.d(T)}|RNA2{r(A)p.r(U)p.r(G)p.r(G)p.r(G)p.r(U)p.r(A)p.r(U)p.r(G)p.r(U)p.r(U)p.r(U)p.r(C)p.r(U)p.r(G)p.r(G)p.r(U)p.r(A)p.r(U)p.d(T)p.d(T)}$$$RNA1{StrandType:ss}|RNA2{StrandType:as}$	76.3%
RNA1{r(G)p.r(G)p.r(U)p.r(U)p.r(U)p.r(A)p.r(U)p.r(C)p.r(A)p.r(C)p.r(U)p.r(A)p.r(A)p.r(A)p.r(A)p.r(U)p.r(A)p.r(U)p.r(G)p.d(T)p.d(T)}|RNA2{r(C)p.r(A)p.r(U)p.r(A)p.r(U)p.r(U)p.r(U)p.r(U)p.r(A)p.r(G)p.r(U)p.r(G)p.r(A)p.r(U)p.r(A)p.r(A)p.r(A)p.r(C)p.r(C)p.d(G)p.d(G)}$$$RNA1{StrandType:ss}|RNA2{StrandType:as}$	81.2%
RNA1{r(U)p.r(U)p.r(U)p.r(U)p.r(A)p.r(C)p.r(A)p.r(G)p.r(A)p.r(A)p.r(U)p.r(U)p.r(A)p.r(A)p.r(G)p.r(A)p.r(G)p.r(G)p.r(A)p.d(T)p.d(T)}|RNA2{r(U)p.r(C)p.r(C)p.r(U)p.r(C)p.r(U)p.r(U)p.r(A)p.r(A)p.r(U)p.r(U)p.r(C)p.r(U)p.r(G)p.r(U)p.r(A)p.r(A)p.r(A)p.r(A)p.d(T)p.d(T)}$$$RNA1{StrandType:ss}|RNA2{StrandType:as}$	47.6%
RNA1{r(A)p.r(U)p.r(U)p.r(A)p.r(A)p.r(A)p.r(G)p.r(U)p.r(A)p.r(G)p.r(A)p.r(U)p.r(C)p.r(U)p.r(U)p.r(G)p.r(U)p.r(A)p.r(G)p.d(T)p.d(T)}|RNA2{r(C)p.r(U)p.r(A)p.r(C)p.r(A)p.r(A)p.r(G)p.r(A)p.r(U)p.r(C)p.r(U)p.r(A)p.r(C)p.r(U)p.r(U)p.r(U)p.r(A)p.r(A)p.r(U)p.d(T)p.d(T)}$$$RNA1{StrandType:ss}|RNA2{StrandType:as}$	45.8%
RNA1{r(A)p.r(C)p.r(A)p.r(G)p.r(G)p.r(A)p.r(U)p.r(G)p.r(C)p.r(U)p.r(G)p.r(U)p.r(A)p.r(G)p.r(U)p.r(A)p.r(G)p.r(C)p.r(A)p.d(T)p.d(T)}|RNA2{r(U)p.r(G)p.r(C)p.r(U)p.r(A)p.r(C)p.r(U)p.r(A)p.r(C)p.r(A)p.r(G)p.r(C)p.r(A)p.r(U)p.r(C)p.r(C)p.r(U)p.r(G)p.r(U)p.d(G)p.d(G)}$$$RNA1{StrandType:ss}|RNA2{StrandType:as}$	89.9%
RNA1{r(U)p.r(G)p.r(G)p.r(G)p.r(C)p.r(A)p.r(G)p.r(C)p.r(U)p.r(G)p.r(C)p.r(A)p.r(A)p.r(U)p.r(G)p.r(A)p.r(C)p.r(U)p.r(C)p.d(T)p.d(T)}|RNA2{r(G)p.r(A)p.r(G)p.r(U)p.r(C)p.r(A)p.r(U)p.r(U)p.r(G)p.r(C)p.r(A)p.r(G)p.r(C)p.r(U)p.r(G)p.r(C)p.r(C)p.r(C)p.r(A)p.d(T)p.d(T)}$$$RNA1{StrandType:ss}|RNA2{StrandType:as}$	44.2%
RNA1{r(U)p.r(A)p.r(G)p.r(U)p.r(A)p.r(G)p.r(C)p.r(A)p.r(A)p.r(A)p.r(U)p.r(C)p.r(A)p.r(G)p.r(U)p.r(A)p.r(C)p.r(A)p.r(A)p.d(T)p.d(T)}|RNA2{r(U)p.r(U)p.r(G)p.r(U)p.r(A)p.r(C)p.r(U)p.r(G)p.r(A)p.r(U)p.r(U)p.r(U)p.r(G)p.r(C)p.r(U)p.r(A)p.r(C)p.r(U)p.r(A)p.d(C)p.d(A)}$$$RNA1{StrandType:ss}|RNA2{StrandType:as}$	87.9%
RNA1{r(C)p.r(A)p.r(G)p.r(A)p.r(G)p.r(C)p.r(C)p.r(A)p.r(G)p.r(A)p.r(U)p.r(G)p.r(A)p.r(U)p.r(C)p.r(C)p.r(A)p.r(C)p.r(A)p.d(T)p.d(T)}|RNA2{r(U)p.r(G)p.r(U)p.r(G)p.r(G)p.r(A)p.r(U)p.r(C)p.r(A)p.r(U)p.r(C)p.r(U)p.r(G)p.r(G)p.r(C)p.r(U)p.r(C)p.r(U)p.r(G)p.d(C)p.d(A)}$$$RNA1{StrandType:ss}|RNA2{StrandType:as}$	82.5%
RNA1{r(G)p.r(A)p.r(A)p.r(U)p.r(U)p.r(A)p.r(A)p.r(G)p.r(A)p.r(G)p.r(G)p.r(A)p.r(G)p.r(A)p.r(A)p.r(A)p.r(U)p.r(A)p.r(G)p.d(T)p.d(T)}|RNA2{r(C)p.r(U)p.r(A)p.r(U)p.r(U)p.r(U)p.r(C)p.r(U)p.r(C)p.r(C)p.r(U)p.r(C)p.r(U)p.r(U)p.r(A)p.r(A)p.r(U)p.r(U)p.r(C)p.d(T)p.d(G)}$$$RNA1{StrandType:ss}|RNA2{StrandType:as}$	74.2%
RNA1{r(C)p.r(C)p.r(U)p.r(C)p.r(C)p.r(A)p.r(G)p.r(A)p.r(C)p.r(A)p.r(C)p.r(A)p.r(C)p.r(C)p.r(A)p.r(U)p.r(A)p.r(U)p.r(G)p.d(T)p.d(T)}|RNA2{r(C)p.r(A)p.r(U)p.r(A)p.r(U)p.r(G)p.r(G)p.r(U)p.r(G)p.r(U)p.r(G)p.r(U)p.r(C)p.r(U)p.r(G)p.r(G)p.r(A)p.r(G)p.r(G)p.d(T)p.d(C)}$$$RNA1{StrandType:ss}|RNA2{StrandType:as}$	66.9%
RNA1{r(A)p.r(G)p.r(G)p.r(A)p.r(G)p.r(G)p.r(A)p.r(A)p.r(G)p.r(A)p.r(U)p.r(A)p.r(C)p.r(C)p.r(A)p.r(A)p.r(C)p.r(U)p.r(A)p.d(T)p.d(T)}|RNA2{r(U)p.r(A)p.r(G)p.r(U)p.r(U)p.r(G)p.r(G)p.r(U)p.r(A)p.r(U)p.r(C)p.r(U)p.r(U)p.r(C)p.r(C)p.r(U)p.r(C)p.r(C)p.r(U)p.d(T)p.d(C)}$$$RNA1{StrandType:ss}|RNA2{StrandType:as}$	75.4%
RNA1{r(G)p.r(A)p.r(C)p.r(A)p.r(C)p.r(A)p.r(C)p.r(C)p.r(A)p.r(U)p.r(A)p.r(U)p.r(G)p.r(A)p.r(A)p.r(G)p.r(G)p.r(A)p.r(G)p.d(T)p.d(T)}|RNA2{r(C)p.r(U)p.r(C)p.r(C)p.r(U)p.r(U)p.r(C)p.r(A)p.r(U)p.r(A)p.r(U)p.r(G)p.r(G)p.r(U)p.r(G)p.r(U)p.r(G)p.r(U)p.r(C)p.d(T)p.d(G)}$$$RNA1{StrandType:ss}|RNA2{StrandType:as}$	64.2%
RNA1{r(U)p.r(A)p.r(U)p.r(U)p.r(G)p.r(U)p.r(C)p.r(A)p.r(U)p.r(U)p.r(G)p.r(C)p.r(A)p.r(A)p.r(G)p.r(C)p.r(A)p.r(C)p.r(U)p.d(T)p.d(T)}|RNA2{r(A)p.r(G)p.r(U)p.r(G)p.r(C)p.r(U)p.r(U)p.r(G)p.r(C)p.r(A)p.r(A)p.r(U)p.r(G)p.r(A)p.r(C)p.r(A)p.r(A)p.r(U)p.r(A)p.d(A)p.d(T)}$$$RNA1{StrandType:ss}|RNA2{StrandType:as}$	89.2%
RNA1{r(G)p.r(U)p.r(A)p.r(C)p.r(A)p.r(A)p.r(A)p.r(C)p.r(A)p.r(A)p.r(A)p.r(A)p.r(U)p.r(C)p.r(C)p.r(C)p.r(G)p.r(A)p.r(A)p.d(T)p.d(T)}|RNA2{r(U)p.r(U)p.r(C)p.r(G)p.r(G)p.r(G)p.r(A)p.r(U)p.r(U)p.r(U)p.r(U)p.r(G)p.r(U)p.r(U)p.r(U)p.r(G)p.r(U)p.r(A)p.r(C)p.d(T)p.d(G)}$$$RNA1{StrandType:ss}|RNA2{StrandType:as}$	73.9%
